Measured values reported in patent publication US8101200B2, “Targeted therapeutic agent release devices and methods of making and using the same” (Angiotech BioCoatings, Inc., priority 2000, dated 2012).

Assay: Elution of paclitaxel from E3 Med Coat coated stents in phosphate buffered saline
Assay type: physicochemical
Details: from E3 Med Coat stents (loading 50-60 μg), over a period of 14 days
Description: Solution E3-PC was coated on stainless steel coronary stents, and dried for 60 minutes at 120° C. This layer was applied twice. Solution E3 —Med Coat was coated over the precoat layers, and dried for 60 minutes at 120° C. Drug loading on the stents in the range of 50-60 μg was achieved by applying the Med Coat three times. The stent samples with three layers of E3—Med Coat were subjected to elution in room temperature phosphate buffered saline for times up to 336 hours, and produced the results set forth in TABLE I.

**Q.** Which paclitaxel eluted out does the source give for `CC(=O)O[C@H]1C(=O)[C@@]2(C)[C@H]([C@H](OC(=O)c3ccccc3)[C@]3(O)C[C@H](OC(=O)[C@H](O)[C@@H](NC(=O)c4ccccc4)c4ccccc4)C(C)=C1C3(C)C)[C@]1(OC(C)=O)CO[C@@H]1C[C@@H]2O` [paclitaxel] here?
**A.** Its paclitaxel eluted out is “approximately 10%”.
